System: patients with advanced cancers (and non-cancer advanced illness) and opioid-induced constipation
Experiment: Pooled post-hoc analysis of Study 1 and Study 2: deaths and overall survival
Format: in vivo, human
Description: Routine adverse event (AE) evaluations described in Example 3 were analyzed. AEs of tumor progression in specific cancers and survival analysis of the placebo and methylnaltrexone-treated cohorts in the clinical studies were tabulated. Both studies were randomized, placebo-controlled trials that involved a 2-week treatment period followed by a 2-week follow-up period. The enrolled subjects were advanced illness (incurable cancer or other end-stage disease) subjects with OIC who were receiving stable doses of laxatives and opioid analgesics. In the context of the study, a stable dose of opioid analgesics was defined as no reduction in the dose of opioid analgesic of ≥50% for at least three days before the first dose of MNTX. A stable dose of laxatives was defined as having a standing laxative order (and not PRN, or as-needed) for at least three days before the first dose of MNTX. A diagnosis of constipation was provided if the subject had (a) fewer than 3 bowel movements during the previous week by history and no clinically notable laxation in the 24 hours before the first dose of MNTX, or (b) no clinical notable laxation in the 48 hours before the first dose of MNTX. In Study 1 (Example 1), subjects received subcutaneous MNTX 0.15 mg/kg or placebo (PBO) every other day (QOD), and in Study 2 (Example 2) subjects received subcutaneous MNTX (8 mg or 12 mg based on body weight 38 to <62 kg or ≥62 kg, respectively) or placebo administered QOD. The 12 mg fixed dose was designed to correspond to the 0.15 mg/kg weight-based dose. Rescue-laxatives, enemas or manual disimpactions were not administered within 4 hours before or after each dose of MNTX. […] For statistical significance testing, the Fisher's exact test was used (p<0.05).
Subsequent to the initial pooled analysis in Example 3, the data from Study 1 and Study 2 was re-analyzed for overall survival (OS) in a post-hoc analysis. Overall survival (OS) was defined as the time interval from the treatment initiation to the date of death or the date of last follow up, whichever occurred first. […] In Study 2, 151 of the enrolled 229 patients were diagnosed with advanced cancers. […] FIG. 12 provides a schematic of the subjects with advanced cancers from the pooled studies that were analyzed in the subsequent analysis. Table 3 provides the patient characteristics from the subsequent pooled analysis of the two studies. Table 4 provides a distribution of the type of cancer diagnosed in the subjects analyzed for survival.
Table 7 lists the number of deaths and survivors in both the placebo and the methylnaltrexone-treated groups for subjects diagnosed with lung, breast, prostate, pancreatic and colon cancer. The groups are further categorized into methylnaltrexone responders and methylnaltrexone non-responders alone or in combination with the placebo group. The analysis included the results from the double-blind and open label phases of the studies. When the group of MNTX-treated subjects across both studies was examined, there was a significant difference in the percentage of subject deaths between the MNTX-responsive group and the MNTX non-responsive group, with the number of survivors in the MNTX-responsive group exceeding the number of survivors in the MNTX non-responsive group. […] For the analysis in Table 7, a subject with laxation within 0-4 hours after two of the first four doses of MNTX was considered a responder. The data in Table 6 may vary slightly from that in Table 4 based on how the subjects were coded as cancer patients during analysis of the data. […]
For the analysis carried out in this Example and in Example 3, a subject with laxation occurring from 0-4 hours after two of the first four doses of MNTX was considered a MNTX responder or responsive subject. Data for placebo patients who elected to participate in the open-label MNTX treatment phase was collected from the first 4 doses of open-label treatment. […]

[1] = Excluding crossover to MNTX (MNTX 117, placebo 61)
[2] = Patients on placebo (crossover to MNTX 51, placebo 61)
[3] = Table 6, Non-Responders (versus Responders < 4hr)
[4] = Table 6, Non-Responders (versus Responders < 8hr)
[5] = Table 6, Non-Responders (versus Responders < 12hr)
[6] = Table 6, Non-Responders (versus Responders < 24hr)
[7] = Table 7, MNTX All, Total of five cancers
[8] = Table 7, MNTX Non-Responders, Breast
[9] = Table 7, MNTX Non-Responders, Colon
[10] = Table 7, MNTX Non-Responders, Lung
[11] = Table 7, MNTX Non-Responders, Pancreas
[12] = Table 7, MNTX Non-Responders, Prostate
[13] = Table 7, MNTX Non-Responders, Total of five cancers
[14] = Table 7, MNTX Responders, Breast
[15] = Table 7, MNTX Responders, Colon
[16] = Table 7, MNTX Responders, Pancreas
[17] = Table 7, MNTX Responders, Prostate
[18] = Table 7, MNTX Responders, Total of five cancers

**Q.** What does the source list for `C[N@+]1(CC2CC2)CC[C@]23c4c5ccc(O)c4O[C@H]2C(=O)CC[C@@]3(O)[C@H]1C5.[Br-]` [MNTX, (R)—N-(cyclopropylmethyl) noroxymorphone methobromide]?
**A.** overall survival MNTX vs. placebo (134 patients with advanced illness other than cancer, p=0.88): no difference; Hazard Ratio, Treatment: MNTX vs. placebo (overall survival, Cox regression) (All patients (MNTX 117, placebo 112)): 0.70; Hazard Ratio, Response vs. no response [1]: 0.32; Hazard Ratio, Treatment: MNTX vs. placebo [1]: 0.32; Deaths (number) (MNTX All Patients, Cancer): 45; Deaths (number) (MNTX All Patients, Non-Cancer): 11; Deaths (%) (MNTX All Patients, Totals): (31.3%); Deaths (number) (MNTX All Patients, Totals): 56; Deaths (number) (MNTX Non-Responders, Cancer): 23; Deaths (number) (MNTX Non-Responders, Non-Cancer): 5; Deaths (%) (MNTX Non-Responders, Totals): (39.4%); Deaths (number) (MNTX Non-Responders, Totals): 28; Deaths (number) (MNTX Responders, Cancer): 22; Deaths (number) (MNTX Responders, Non-Cancer): 6; Deaths (%) (MNTX Responders, Totals): (25.9%); Deaths (number) (MNTX Responders, Totals): 28; median overall survival (OS) (MNTX non-responsive group (45 subjects)): 58 days; overall survival (OS) (MNTX-responsive group, analysis before the updated analysis (FIG. 9)): 121 days; Hazard Ratio, Response vs. no response [2]: 0.64; Hazard Ratio, Treatment: MNTX vs. placebo [2]: 0.15; % Deaths [3]: 50.0%; Deaths [3]: 22; Survivors [3]: 22; % Deaths [4]: 53.8%; Deaths [4]: 21; Survivors [4]: 18; % Deaths [5]: 50.0%; Deaths [5]: 18; Survivors [5]: 18; % Deaths [6]: 48.4%; Deaths [6]: 15; Survivors [6]: 16; % Deaths (Table 6, Responders < 4hr): 31.5%; Deaths (Table 6, Responders < 4hr): 23; Survivors (Table 6, Responders < 4hr): 50; % Deaths (Table 6, Responders < 8hr): 30.8%; Deaths (Table 6, Responders < 8hr): 24; Survivors (Table 6, Responders < 8hr): 54; % Deaths (Table 6, Responders < 12hr): 33.3%; Deaths (Table 6, Responders < 12hr): 27; Survivors (Table 6, Responders < 12hr): 54; % Deaths (Table 6, Responders < 24hr): 34.9%; Deaths (Table 6, Responders < 24hr): 30; Survivors (Table 6, Responders < 24hr): 56; Deaths (Table 7, MNTX All, Breast): 3; Deaths (%) (Table 7, MNTX All, Breast): 21.4%; Survivors (Table 7, MNTX All, Breast): 11; Deaths (Table 7, MNTX All, Colon): 1; Deaths (%) (Table 7, MNTX All, Colon): 25.0%; Survivors (Table 7, MNTX All, Colon): 3; Deaths (Table 7, MNTX All, Lung): 14; Deaths (%) (Table 7, MNTX All, Lung): 45.2%; Survivors (Table 7, MNTX All, Lung): 17; Deaths (Table 7, MNTX All, Pancreas): 3; Deaths (%) (Table 7, MNTX All, Pancreas): 33.3%; Survivors (Table 7, MNTX All, Pancreas): 6; Deaths (Table 7, MNTX All, Prostate): 5; Deaths (%) (Table 7, MNTX All, Prostate): 41.7%; Survivors (Table 7, MNTX All, Prostate): 7; Deaths [7]: 26; Deaths (%) [7]: 37.7%; Survivors [7]: 43; Deaths [8]: 2; Deaths (%) [8]: 50.0%; Survivors [8]: 2; Deaths [9]: 0; Deaths (%) [9]: 0.0%; Survivors [9]: 1; Deaths [10]: 8; Deaths (%) [10]: 47.1%; Survivors [10]: 9; Deaths [11]: 3; Deaths (%) [11]: 75.0%; Survivors [11]: 1; Deaths [12]: 3; Deaths (%) [12]: 60.0%; Survivors [12]: 2; Deaths [13]: 16; Deaths (%) [13]: 51.6%; Survivors [13]: 15; Deaths (Table 7, MNTX Responders (laxation within 0-4 hours after two of the first four doses), Lung): 6; Deaths [14]: 1; Deaths (%) [14]: 10.0%; Survivors [14]: 9; Deaths [15]: 1; Deaths (%) [15]: 33.3%; Survivors [15]: 2; Deaths (%) (Table 7, MNTX Responders, Lung): 42.9%; Survivors (Table 7, MNTX Responders, Lung): 8; Deaths [16]: 0; Deaths (%) [16]: 0.0%; Survivors [16]: 5; Deaths [17]: 2; Deaths (%) [17]: 28.6%; Survivors [17]: 5; Deaths [18]: 10; Deaths (%) [18]: 26.3%; Survivors [18]: 28; median overall survival (OS) (cancer patients treated with MNTX (n=117)): 76 days; median overall survival (OS) (cancer patients with response to MNTX (n=72)): 118 days; median OS (lung cancer patients (n=15) with response to MNTX): 118 days; median OS (lung cancer, 32 patients treated with MNTX): 118 days; Deaths (pancreatic cancer, 4 patients with response to MNTX): no death; median OS (pancreatic cancer, 8 patients treated with MNTX): 76 days; survival extended after administration (pancreatic cancer, methylnaltrexone-responsive group, initial analysis (FIG. 12)): ~100 days; median OS (placebo patients (n=23) with response to MNTX during open-label treatment): 74 days; median overall survival (placebo patients (n=56) who crossed over to MNTX): 75 days

— patent US20210121456A1, “USE OF METHYLNALTREXONE TO ATTENUATE TUMOR PROGRESSION” (Salix Pharmaceuticals, Inc., priority 2014, published 2021)
